Experimental data taken from patent US11214803B2, “Modulators of YAP1 expression” (Ionis Pharmaceuticals, Inc., priority 2019, dated 2022).
Marks after values point to notes of the source that are not given here. Strand notation (5' to 3'): a small letter for the sugar, then the base; units joined by * are phosphorothioate-linked, units joined directly phosphodiester-linked; [ ] holds rarer units or linkages, { } end groups; capitals alone tell only the bases. e = 2'-O-(2-methoxyethyl) (MOE); k = constrained ethyl (cEt); [5mC] = 5-methylcytosine; d = 2'-deoxy (DNA); m = 2'-O-methyl

How the values were obtained:
Yap1 mRNA [1] = experiment: Dose-dependent inhibition of human Yap1 in SNU-449 cells (Example 9, RTS36584); assay type: cell-based; details: free uptake; for % UTC (Yap1 mRNA): approximately 48 hours; for IC50: linear regression on a log/linear plot
Method in brief: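 Read-out was Yap1 mRNA (primer-probe RTS36584) normalised to total RNA by RIBOGREEN, given as % of untreated cells, with IC50 fitted by linear regression of log/linear data. Oligonucleotides were dosed by free uptake to SNU-449 cells, 10,000/well, for ~48 h.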

[2] = Tolerability in Sprague-Dawley rats, plasma chemistry markers (Example 21); assay type: in vivo; details: male Sprague-Dawley rats, 50 mg/kg s.c. weekly for 6 weeks (7 doses), 48 hours after last dose
Protocol: Sprague-Dawley rats are a multipurpose model used for safety and efficacy evaluations. The rats were treated with Ionis modified oligonucleotides from the studies described in the Examples above and evaluated for changes in the levels of various plasma chemistry markers.

[3] = Tolerability in Sprague-Dawley rats, body and organ weights (Example 21); assay type: in vivo; details: male Sprague-Dawley rats, 50 mg/kg s.c. weekly for 6 weeks (7 doses); for Kidney weight / Liver weight / Spleen weight: end of study; for body weight: terminal, prior to necropsy
Protocol: Terminal body weight was measured prior to necropsy. Ionis oligonucleotides that caused any changes in organ weights outside the expected range for modified oligonucleotides were excluded from further studies.

[4] = Tolerability in Sprague-Dawley rats, kidney function, urine total protein to creatinine ratio (Example 21); details: male Sprague-Dawley rats, 50 mg/kg s.c. weekly for 6 weeks (7 doses)
Protocol: Male Sprague-Dawley rats were maintained on a 12-hour light/dark cycle and fed ad libitum with Purina normal rat chow. Groups of 4 Sprague-Dawley rats each were weekly injected subcutaneously with 50 mg/kg of Ionis oligonucleotide for 6 weeks (total 7 doses). Forty-eight hours after the last dose, the rats were euthanized; and organs, urine and plasma were harvested for further analysis.
To evaluate the effect of Ionis oligonucleotides on kidney function, urinary levels of total protein and creatinine were measured using an automated clinical chemistry analyzer (Hitachi Olympus AU400c, Melville, N.Y.).

Yap1 mRNA [5] = experiment: Dose-dependent inhibition of human Yap1 in A-431 cells (Example 8, 10,000 cells per well, RTS4814); assay type: cell-based; details: free uptake, approximately 48 hours, RTS4814; for Yap1 mRNA, % UTC: A-431 cells, 10,000 cells per well; for IC50: A-431 cells, linear regression on log/linear plot
Method in brief: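 Yap1 mRNA, normalized to RIBOGREEN total RNA and expressed as % untreated control, was read with RTS4814 about 48 h after free-uptake oligonucleotide treatment of A-431 cells at 10,000 cells/well. IC50 derived by linear regression of log/linear data.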

[6] = Tolerability in CD-1 mice, plasma chemistry markers (Example 17); assay type: in vivo; details: male CD-1 mice, 50 mg/kg s.c. twice a week for four weeks (8 treatments), day 27
Protocol: (§1) CD-1 mice were treated with modified oligonucleotides selected from studies described above and evaluated for changes in the levels of various plasma chemistry markers.
(§2) Groups of four male CD-1 mice at 4-5 weeks of age (obtained from Charles River) were injected subcutaneously twice a week for four weeks (for a total of 8 treatments) with 50 mg/kg of modified oligonucleotides. One group of male CD-1 mice was injected with PBS. Mice were euthanized on day 27 post start of treatment (24 hrs following the final administration).

[7] = Tolerability in CD-1 mice, body and organ weights (Example 17); assay type: in vivo; details: male CD-1 mice, 50 mg/kg s.c. twice a week for four weeks (8 treatments), end of study (day 27)
Protocol: as §2
(§3) Body weights of CD-1 mice were measured at the end of the study, and the average body weight for each group is presented in the table below. Modified oligonucleotides that caused any changes in organ weights outside the expected range for modified oligonucleotides were excluded from further studies.

Yap1 mRNA [8] = experiment: Inhibition of human Yap1 mRNA in SNU449 hepatocellular carcinoma xenograft tumors (Example 26); assay type: in vivo; details: SNU449 xenografts in NSG mice, 50 mg/kg twice weekly for five days, relative to PBS treated animals
Protocol: A SNU449 hepatocellular carcinoma xenograft tumor model was used to evaluate activity of modified oligonucleotides targeted to human Yap1. Ten million SNU449 cells in 30% matrigel were implanted subcutaneously into the flanks of female NOD Cg-Prkdcscid ll2rgtm1Wjl/SzJ (NSG) mice (from Jackson Laboratory) at 4-6 weeks of age. When tumors reached an average volume of 100 mm^3, approximately two weeks post-implantation, groups of four mice each were administered at 50 mg/kg twice weekly with modified oligonucleotides for five days. Tumors were collected and tested for Yap1 mRNA knockdown by RT-qPCR. Yap1 mRNA levels were measured as previously described using the Human Yap1 primer-probe set RTS4814. Yap1 mRNA levels were normalized to actin-beta content, as measured by primer probe set RTS5002. Results are presented in the tables below as percent control of the amount of Yap1 mRNA relative to PBS treated animals (% control).

[9] = Tolerability in CD-1 mice, plasma chemistry markers (Example 16); assay type: in vivo; details: male CD-1 mice, 50 mg/kg s.c. twice a week for four weeks (8 treatments), day 27
Protocol: as §1, §2

[10] = Tolerability in CD-1 mice, body and organ weights (Example 16); assay type: in vivo; details: male CD-1 mice, 50 mg/kg s.c. twice a week for four weeks (8 treatments), end of study (day 27)
Protocol: as §2, §3

Row | Substance | % UTC (Yap1 mRNA) (Yap1 mRNA [1]; 31.3 nM) [% UTC] | % UTC (Yap1 mRNA) (Yap1 mRNA [1]; 125.0 nM) [% UTC] | % UTC (Yap1 mRNA) (Yap1 mRNA [1]; 500.0 nM) [% UTC] | % UTC (Yap1 mRNA) (Yap1 mRNA [1]; 2000.00 nM) [% UTC] | IC50 (Yap1 mRNA [1]) [nM] | ALT [2] | AST [2] | BUN [2] | TBIL [2] | Kidney weight [3] | Liver weight [3] | Spleen weight [3] | body weight [3] [g] | URINE P/C ratio (total protein to creatinine ratio) [4] | also measured
1 | 1198874 (kA*kA*dG*dT*dG*dT*dA*dT*dG*dT*d[5mC]*kA*eG*kA*eA*kG) [compound 1198874] | 36 | 8 | 1 | 0 | < 30 | 73 U/L | 102 U/L | 22 mg/dL | 0.16 mg/dL | 3.67 g | 20 g | 2.61 g | 372 | 9 | –
2 | 1075395 (antisense kA*kT*kG*dA*dA*dT*dA*dA*dG*dT*dA*dT*dG*k[5mC]*k[5mC]*kA) [compound 1075395] | – | – | – | – | – | – | – | – | – | – | – | – | – | – | Yap1 mRNA, % UTC (Yap1 mRNA [5]; 31.3 nM): 60 % UTC; Yap1 mRNA, % UTC (Yap1 mRNA [5]; 125.0 nM): 18 % UTC; Yap1 mRNA, % UTC (Yap1 mRNA [5]; 500.0 nM): 7 % UTC; Yap1 mRNA, % UTC (Yap1 mRNA [5]; 2000.00 nM): 5 % UTC; IC50 (Yap1 mRNA [5]): < 20 nM; ALT [6]: 38 U/L; AST [6]: 51 U/L; BUN [6]: 21 mg/dL; TBIL [6]: 0.18 mg/dL; Kidney weight [7]: 0.49 g; Liver weight [7]: 2.30 g; Spleen weight [7]: 0.20 g; body weight [7]: 34 g
3 | 1200857 (kA*kG*kT*dG*dT*mA*dT*dG*dT*d[5mC]*dA*dG*dA*kA*kG*kA; antisense) [compound 1200857] | 66 | 30 | 8 | 2 | 100 | 183 U/L | 318 U/L | 56 mg/dL | 4.93 mg/dL | 6.97 g | 19 g | 2.55 g | 307 | 52 | –
4 | 1198615 (kT*kT*kA*dA*dA*dG*dT*dG*dT*dA*dT*dG*kT*k[5mC]*kA*eG) [compound 1198615] | 52 | 23 | 5 | 2 | < 30 | 38 U/L | 71 U/L | 21 mg/dL | 0.13 mg/dL | 3.01 g | 16 g | 2.35 g | 369 | 8 | Yap1 mRNA in tumors, % control (Yap1 mRNA [8]): 62 % control
5 | 1198312 (kG*k[5mC]*kA*d[5mC]*dT*dT*dT*dT*dA*d[5mC]*dA*dT*kT*eA*kG*eG) [compound 1198312] | 76 | 34 | 10 | 5 | 100 | 132 U/L | 108 U/L | 25 mg/dL | 0.14 mg/dL | 4.26 g | 19 g | 2.19 g | 365 | 60 | –
6 | 1076186 (kA*kT*kT*dT*dA*dG*dG*dA*dT*dG*d[5mC]*dA*dT*kG*kG*kT) [compound 1076186] | – | – | – | – | – | – | – | – | – | – | – | – | – | – | ALT [9]: 74 U/L; AST [9]: 97 U/L; Albumin [9]: 2.5 g/dL; BUN [9]: 23 mg/dL; TBIL [9]: 0.16 mg/dL; Kidney weight [10]: 0.58 g; Liver weight [10]: 2.42 g; Spleen weight [10]: 0.16 g; body weight [10]: 37 g
7 | 1097037 (kA*kG*kA*dT*dT*dT*dA*dG*dG*dA*dT*dG*d[5mC]*kA*kT*kG; antisense) [compound 1097037] | – | – | – | – | – | – | – | – | – | – | – | – | – | – | ALT [6]: 73 U/L; AST [6]: 97 U/L; BUN [6]: 23 mg/dL; TBIL [6]: 0.12 mg/dL; Kidney weight [7]: 0.52 g; Liver weight [7]: 2.33 g; Spleen weight [7]: 0.21 g; body weight [7]: 33 g
8 | 1198612 (kA*kA*kG*dT*dG*dT*dA*dT*dG*dT*d[5mC]*dA*kG*kA*kA*eG) [compound 1198612] | 44 | 12 | 2 | 0 | < 30 | 74 U/L | 91 U/L | 31 mg/dL | 0.12 mg/dL | 3.60 g | 17 g | 2.33 g | 345 | 11 | –
9 | 1074756 (kG*k[5mC]*kA*d[5mC]*dT*dT*dT*dT*dA*d[5mC]*dA*dT*dT*kA*kG*kG) [compound 1074756] | 42 | 20 | 6 | 3 | < 30 | 114* U/L | 79* U/L | 0.57* mg/dL | 0.10* mg/dL | 4.71* g | 21* g | 1.99* g | 349 | 167 | Yap1 mRNA, % UTC (Yap1 mRNA [5]; 31.3 nM): 22 % UTC; Yap1 mRNA, % UTC (Yap1 mRNA [5]; 125.0 nM): 7 % UTC; Yap1 mRNA, % UTC (Yap1 mRNA [5]; 500.0 nM): 4 % UTC; Yap1 mRNA, % UTC (Yap1 mRNA [5]; 2000.00 nM): 4 % UTC; IC50 (Yap1 mRNA [5]): < 20 nM
10 | 1198873 (kA*kG*dT*dG*dT*dA*dT*dG*dT*d[5mC]*dA*kG*eA*kA*eG*kA; antisense) [compound 1198873] | 38 | 12 | 2 | 0 | < 30 | 78* U/L | 79* U/L | 24* mg/dL | 0.17* mg/dL | 3.65 g | 19 g | 2.42 g | 408 | 9 | –
